Measured values reported in patent US11957759B1, “Rapidly accelerated fibrosarcoma (RAF) degrading compounds and associated methods of use” (Arvinas Operations, Inc., priority 2022, dated 2024).

Legend:
B-RAF V600E = molecular target: T1, B-RAF V600E (Homo sapiens, UniProt P15056, V600E); test: Target protein degradation, assay C: T-Rex 293 cells, HA-BRAF_V600E, 384 well format; assay type: cell-based; conditions: T-Rex 293 HA-BRAF_V600E cells, 24 hours, Examples 83-269; for DC50: Assay C; for Dmax: T-REx-293, Assay C
T1 construct: expressed in transfected cells; host or cells: T-Rex 293 cells (Invitrogen #R71007)
Outline: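 After 24 h exposure to an 11-point 1:3 series (300 nM–5 pM, 0.5% DMSO), fixed T-Rex 293 cells carrying HA-BRAF V600E (induced with 1 ng/mL doxycycline) were stained anti-HA and imaged. DC50 and Dmax were derived from BRAF intensity relative to control, and cytotoxicity from nuclear counts.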

B-RAF G466V = molecular target: T2, B-RAF G466V (Homo sapiens, UniProt P15056, G466V); test: Target protein degradation, assay D: T-Rex 293 cells, HA-BRAF_G466V, 384 well format; assay type: cell-based; conditions: T-Rex 293 HA-BRAF_G466V cells, 24 hours, Examples 83-269; for DC50: Assay D; for Dmax: T-REx-293, Assay D
T2 construct: expressed in transfected cells; host or cells: T-Rex 293 cells (Invitrogen #R71007)
Outline: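 Degradation measured by high-content imaging of anti-HA immunofluorescence in fixed T-Rex 293 cells carrying inducible HA-BRAF G466V (1 ng/mL doxycycline), after 24 h PROTAC exposure at 37 °C over 300 nM–5 pM (1:3, 11 points, 0.5% DMSO). Outputs DC50 and Dmax as % of control; nuclei counts against DMSO wells gauge toxicity.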

T2 sequence (P15056 whole entry G466V): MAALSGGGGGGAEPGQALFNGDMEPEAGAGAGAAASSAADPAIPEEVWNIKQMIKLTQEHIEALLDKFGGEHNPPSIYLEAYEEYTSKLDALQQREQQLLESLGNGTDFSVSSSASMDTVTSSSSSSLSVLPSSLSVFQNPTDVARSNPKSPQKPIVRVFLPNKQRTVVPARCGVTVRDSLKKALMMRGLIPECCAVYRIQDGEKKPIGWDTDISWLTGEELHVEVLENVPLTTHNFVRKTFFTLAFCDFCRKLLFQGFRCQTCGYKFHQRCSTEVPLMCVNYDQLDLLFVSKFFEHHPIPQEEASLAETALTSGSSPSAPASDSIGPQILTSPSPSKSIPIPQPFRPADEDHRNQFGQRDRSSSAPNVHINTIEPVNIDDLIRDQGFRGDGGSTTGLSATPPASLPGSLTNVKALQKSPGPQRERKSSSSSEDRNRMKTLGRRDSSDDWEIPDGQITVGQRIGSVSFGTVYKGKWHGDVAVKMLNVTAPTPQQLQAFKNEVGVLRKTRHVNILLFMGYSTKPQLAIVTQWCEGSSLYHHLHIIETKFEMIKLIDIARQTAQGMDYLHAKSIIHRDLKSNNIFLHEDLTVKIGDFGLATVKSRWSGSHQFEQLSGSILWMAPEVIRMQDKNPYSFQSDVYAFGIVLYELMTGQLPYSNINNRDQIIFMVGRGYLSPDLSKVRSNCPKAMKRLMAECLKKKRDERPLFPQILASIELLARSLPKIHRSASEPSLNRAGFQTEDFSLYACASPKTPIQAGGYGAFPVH
T1 sequence (P15056 whole entry V600E): as the sequence (P15056 whole entry G466V) above, with V466G, V600E counted along it

Structure (SMILES)	DC50 (B-RAF V600E)	Dmax (B-RAF V600E)	DC50 (B-RAF G466V)	Dmax (B-RAF G466V)
N#Cc1c(NS(=O)(=O)N2CC[C@@H](F)C2)ccc(F)c1Oc1ccc2ncn(-c3ccc(N4CCC(CN5CC6(CC(c7ccc8c(c7)CN(C7CCC(=O)NC7=O)C8=O)C6)C5)CC4)cc3)c(=O)c2c1 (stereo partly drawn) [Example 182, (3R)-N-{2-cyano-3-[(3-(4-[4-({6-[2-(2,6-dioxopiperidin-3-yl)-1-oxo-2,3-dihydro-1H-isoindol-5-yl]-2-azaspiro[3.3]heptan-2-yl}methyl)piperidin-1-yl]phenyl}-4-oxo-3,4-dihydroquinazolin-6-yl)oxy]-4-fluorophenyl}-3-fluoropyrrolidine-1-sulfonamide]	0.05 to 0.5 µM	≤ 35%	0.001 to 0.01 µM	35 to 70%
CN(c1ccc(-n2cnc3ccc(Oc4c(F)ccc(NS(=O)(=O)N5CC[C@@H](F)C5)c4C#N)cc3c2=O)cc1)C1CCC(N2CCN(c3ccc4c(c3)CN([C@H]3CCC(=O)NC3=O)C4=O)CC2)CC1 (stereo partly drawn) [Example 225, (3R)-N-(2-cyano-4-fluoro-3-{[3-(4-{methyl[(1s,4s)-4-(4-{2-[(3S)-2,6-dioxopiperidin-3-yl]-1-oxo-2,3-dihydro-1H-isoindol-5-yl}piperazin-1-yl)cyclohexyl]amino}phenyl)-4-oxo-3,4-dihydroquinazolin-6-yl]oxy}phenyl)-3-fluoropyrrolidine-1-sulfonamide]	> 0.5 µM		0.01 to 0.03 µM	35 to 70%
N#Cc1c(NS(=O)(=O)N2CC[C@@H](F)C2)ccc(F)c1Oc1ccc2ncn(-c3ccc(N4CCC(CN5CCC(Oc6cccc7c6C(=O)N(C6CCC(=O)NC6=O)C7=O)CC5)CC4)nc3)c(=O)c2c1 (stereo partly drawn) [Example 137, (3R)-N-(2-cyano-3-{[3-(6-{4-[(4-{[2-(2,6-dioxopiperidin-3-yl)-1,3-dioxo-2,3-dihydro-1H-isoindol-4-yl]oxy}piperidin-1-yl)methyl]piperidin-1-yl}pyridin-3-yl)-4-oxo-3,4-dihydroquinazolin-6-yl]oxy}-4-fluorophenyl)-3-fluoropyrrolidine-1-sulfonamide]	> 0.5 µM		> 0.03 µM	≤ 35%
N#Cc1c(NS(=O)(=O)N2CC[C@@H](F)C2)ccc(F)c1Oc1ccc2ncn(-c3ccc(N4CCC(CN5CC6(CCC(c7ccc8c(c7)CN(C7CCC(=O)NC7=O)C8=O)CC6)C5)C4)cc3)c(=O)c2c1 (single isomer, unassigned) [Example 261, (3R)-N-(2-cyano-3-{[3-(4-{3-[(7-{2-[(3R*)-2,6-dioxopiperidin-3-yl]-1-oxo-2,3-dihydro-1H-isoindol-5-yl}-2-azaspiro[3.5]nonan-2-yl)methyl]pyrrolidin-1-yl}phenyl)-4-oxo-3,4-dihydroquinazolin-6-yl]oxy}-4-fluorophenyl)-3-fluoropyrrolidine-1-sulfonamide]	0.05 to 0.5 µM		0.001 to 0.01 µM	

Second part, the compound after the results:

DC50 (B-RAF V600E)	Dmax (B-RAF V600E)	DC50 (B-RAF G466V)	Dmax (B-RAF G466V)	Structure (SMILES)
0.05 to 0.5 µM	35 to 70%	0.01 to 0.03 µM	35 to 70%	N#Cc1c(NS(=O)(=O)N2CC[C@@H](F)C2)ccc(F)c1Oc1ccc2ncn(-c3ccc(N4CCC(CN5CC6(CCC(c7ccc8c(c7)CN([C@@H]7CCC(=O)NC7=O)C8=O)CC6)C5)CC4)cc3)c(=O)c2c1 [Example 220, (3R)-N-(2-cyano-3-{[3-(4-{4-[(7-{2-[(3R)-2,6-dioxopiperidin-3-yl]-1-oxo-2,3-dihydro-1H-isoindol-5-yl}-2-azaspiro[3.5]nonan-2-yl)methyl]piperidin-1-yl}phenyl)-4-oxo-3,4-dihydroquinazolin-6-yl]oxy}-4-fluorophenyl)-3-fluoropyrrolidine-1-sulfonamide]
0.05 to 0.5 µM	35 to 70%	0.001 to 0.01 µM	35 to 70%	N#Cc1c(NS(=O)(=O)N2CC[C@@H](F)C2)ccc(F)c1Oc1ccc2ncn(-c3ccc(N4CCN(CCN5CCC(c6ccc7c(c6)CN(C6CCC(=O)NC6=O)C7=O)CC5)CC4)cc3)c(=O)c2c1 (stereo partly drawn) [Example 176, (3R)—N-{2-cyano-3-[(3-{4-[4-(2-{4-[2-(2,6-dioxopiperidin-3-yl)-1-oxo-2,3-dihydro-1H-isoindol-5-yl]piperidin-1-yl}ethyl)piperazin-1-yl]phenyl}-4-oxo-3,4-dihydroquinazolin-6-yl)oxy]-4-fluorophenyl}-3-fluoropyrrolidine-1-sulfonamide]
